From patent US20250161223A1, “PHARMACEUTICAL FORMULATION” (Novartis AG, priority 2022, published 2025)

Experiments:
[1] = Solid form conversion of slurry in water; format: physicochemical; conditions: 30% w/w slurry in water; after 5 hrs
Text: WG based core tablets can easily be converted into film-coated tablets with conventional coating operations. […] Looking at an unknown landscape of polymorphs for TNO155, WG was not pursued further.

[2] = Chemical compatibility study of drug substance alone and binary mixtures (HPLC); format: physicochemical; conditions: 4 weeks, 40° C./75% RH
Procedure: For HPLC in Table 1, the following conditions were applied: • Mobile Phase A: 0.1% Trifluoroacetic acid in Water. • Mobile Phase B: Water:Acetonitrile(50:950 v/v) • Column: Aquity HSS T3, • Column Dimension: Length—100 mm, Internal Diameter—2.1 mm, Particle size—1.8 μm • Flow Rate: 0.5 mL/min • Detection: 220 nm • Column Temperature: 40° C. • Auto sampler Temperature: 22° C. • Injection Volume: 4 μL • Run Time: 13.0 minutes • Program: Gradient […] All excipients except PVP-K30 may still be suitable for formulation when used in ratios more realistic in a final formulation (see Example 2).

SMILES: C[C@@H]1OCC2(CCN(c3cnc(Sc4ccnc(N)c4Cl)c(N)n3)CC2)[C@@H]1N [TNO155-BBA, (3S,4S)-8-(6-amino-5-((2-amino-3-chloropyridin-4-yl)thio)pyrazin-2-yl)-3-methyl-2-oxa-8-azaspiro[4.5]decan-4-amine succinate (1:1) hemihydrate form HA]
- Solid form stability in slurry [1]: solid form conversion
- Assay of active ingredient ([2]; closed): 98.6%
- Assay of active ingredient ([2]; open): 98.7%
